For experiment [1], the system named is cervical carcinoma cells (Hela). Description: CCK-8 cell proliferation assay with Exo-Dox. Format: cell-based, human. The note with it: 24 h. The protocol: (§1) Cell viability was assessed using a Cell Counting Kit-8 (CCK-8 assay, Enzo). In brief, 3T3 and HepG2 cells were seeded into a 96-well flat culture plate (Corning). After being cultured overnight, the cells were washed with FBS-free EMEM and incubated with a specific concentration of sEV and exosomal relative in FBS-free medium at 37° C. for 12, 24, 36, or 48 h. The cells were then washed three times with sterilized PBS and incubated with fresh medium containing 10% FBS overnight. The cells were then washed with PBS, and FBS-free EMEM […] before adding assay reagent. After incubation for 20 min at 37° C., the cell proliferation and cytotoxicity were measured by absorbance at 460 nm. The background was measured by 3T3 and HepG2 cells cultured in FBS-free EMEM only.
(§2) The ability of Exo-Dox to inhibit cancer cell proliferation in vitro was then analyzed. Human hepatocellular carcinoma cells (HepG2) and cervical carcinoma cells (Hela) were treated with Exo-Dox for 24 h, while cells without treatment, treated with control sEVs, and D-Cys-GQDs mixed with free Dox are negative controls. Cell viability of all samples was measured by CCK-8 assay. […] Dox-loaded sEVs by sonication method were not included in the cell viability tests due to low yield of loaded sEVs that was caused by the damage of physical structure of sEVs by sonication (FIG. 17A-B).
A general note: Tetrazolium dyes change colour on reduction, which living cells bring about.

Experiment [2] concerns Human hepatocellular carcinoma cells (HepG2). Description: CCK-8 cell proliferation assay with Exo-Dox. Format: cell-based. The note with it: 24 h. As for the experimental part:
as §1, §2

Another experiment deals with tau fibrils (Homo sapiens, UniProt P10636). Briefly: Tau biosensor seeding (propagation) assay. The note with it: inhibitors added 1 h after tau fibrils; D-GQDs 0.1-0.8 μM, Qal:D-GQDs 10:1, 6:1, 3:1; bare Qal 1.5 μM to 9 μM. In kind it is cell-based. The protocol:
To study the effect of Qal-D-GQD-Exo on tau propagation, a tau biosensor seeding assay (FIG. 35) was used to investigate whether the Qal-D-GQD-Exo could block the cellular transmission of exogeneous mature tau fibrils using three different ratios of Qal to D-GQDs (10:1, 6:1, and 3:1) and concentrations of D-GQDs at 0.8, 0.4, 0.2, and 0.1 μM.

tau fibrils, sequence (P10636 whole entry): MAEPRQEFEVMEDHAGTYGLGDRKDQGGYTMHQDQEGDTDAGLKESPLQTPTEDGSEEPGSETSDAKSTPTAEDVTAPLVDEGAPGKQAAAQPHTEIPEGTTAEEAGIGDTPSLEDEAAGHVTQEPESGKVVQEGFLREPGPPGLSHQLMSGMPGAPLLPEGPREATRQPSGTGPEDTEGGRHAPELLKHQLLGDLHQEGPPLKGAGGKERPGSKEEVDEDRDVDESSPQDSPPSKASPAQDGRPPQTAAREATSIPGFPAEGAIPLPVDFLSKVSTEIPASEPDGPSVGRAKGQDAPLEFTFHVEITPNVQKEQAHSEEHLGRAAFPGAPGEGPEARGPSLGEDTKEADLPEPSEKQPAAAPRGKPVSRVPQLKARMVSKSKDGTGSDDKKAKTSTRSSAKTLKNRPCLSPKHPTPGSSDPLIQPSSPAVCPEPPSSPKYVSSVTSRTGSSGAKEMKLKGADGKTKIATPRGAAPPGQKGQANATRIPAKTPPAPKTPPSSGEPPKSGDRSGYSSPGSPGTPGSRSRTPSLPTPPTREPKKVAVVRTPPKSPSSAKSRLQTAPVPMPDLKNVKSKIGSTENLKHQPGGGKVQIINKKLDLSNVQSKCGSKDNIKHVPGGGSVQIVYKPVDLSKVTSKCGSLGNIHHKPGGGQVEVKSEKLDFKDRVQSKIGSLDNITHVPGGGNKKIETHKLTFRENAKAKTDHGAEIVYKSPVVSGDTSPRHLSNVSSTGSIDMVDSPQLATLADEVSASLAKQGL

With `COc1cccc2c1C(=O)c1c(O)c3c(c(O)c1C2=O)C[C@@](O)(C(=O)CO)C[C@@H]3O[C@H]1C[C@H](N)[C@H](O)[C@H](C)O1` [free Dox, Doxorubicin], the “inhibition of cell proliferation” value in experiment [1] is reported as 27.7±5.0%; in experiment [2] it was 28.3±5.2%.
For the compound “Qal: tau-specific N-amino peptide (NAP), amino acid sequence CGTHKLTFRASHAVQIVYKGC (SEQ ID NO: 2)”, in the experiment with tau fibrils, the “inhibition of intracellular tau aggregation, at most” value is “did not show any inhibitory efficiency”.

The values above are taken from patent US20260216093A1, “COMPOSITIONS AND METHODS FOR ENHANCED DRUG LOADING INTO LIPID-BASED CARRIERS” (UNIVERSITY OF NOTRE DAME DU LAC, priority 2023, published 2026).
